The subject of one data set is HCV replicon. Put plainly: Anti-HCV replicon assay, EC50 (luciferase luminescence). The format is cell-based. The settings on record: Hepatitis C virus. How it is done: (§1) The anti-HCV activity of certain pyrido[3,2-d]pyrimidine derivatives of this invention was tested in a human hepatoma Huh-7 cell line harbouring a HCV replicon. The assay comprised the following steps:
(§2) Step 1: Compound Preparation and Serial Dilution
(§3) • 1. for water soluble pyrido[3,2-d]pyrimidine derivatives, a volume of 500 μL of solution in cell media (DMEM, 10% FBS, P/S, L-Glutamine) was prepared with a concentration being twice the concentration of the starting final serial dilution concentration. A volume of 150 μL of the solution was added to the pre-specified wells in column 1 of a 96-well cell culture plate (PerkinElmer, white plate, cat. #6005181, for EC50 assay; black plate, cat. #6005182 for CC50 assay). The rest of the plate, columns 2-12, was filled with 100 μL of cell media. The plate was then placed on a Precision 2000 Workstation to start the serial dilution. Compounds were diluted three times each step from column 1 to column 10. Column 11 was used as a blank control (no compound added). • 2. for pyrido[3,2-d]pyrimidine derivatives requiring DMSO to dissolve, serial dilution is performed in 50% DMSO in a 384-well plate. A solution containing a compound at 100-fold concentration of the starting final serial dilution concentration was prepared in 50% DMSO and added to the pre-specified wells in column 1 of a polypropylene 384-well plate. The plate was then placed on a Precision 2000 Workstation to start the serial dilution. After the serial dilution, a volume of 2 μL of the solution was transferred from the 384-well plate to a 96-well cell culture plate containing 100 μL of cell media on a Biomek FX Workstation. The DMSO concentration in the final assay condition was 0.5% after cells are added to the plate and the total volume in each well is brought to 200 μL. Step 2: to each well of the serial dilution plate prepared above, 100 μL of cell media containing 6000 suspended Huh-7 HCV replicon cells was added with a Multidrop workstation. The plates were incubated for 3 days at 37° C. with 5% CO2. Step 3: Detection: • a) for the EC50 assay, the media in a 96-well cell culture plate was aspirated with a Biotek EL405 plate-washer. A volume of 200 μL of a solution containing a 1:1 mixture of cell-lysis buffer (Promega, Luciferase Cell Culture Lysis 5× Reagent, cat. #E1531) and luciferase substrate solution (Promega, Luciferase Assay, cat. # E4550) was added to each well of the plate with Multidrop. The plate was incubated for 30 minutes at room temperature before the luminescence signal was measured with a TopCount plate-reader. • b) for the CC50 assay, a volume of 100 μL of pre-mixed CellTiter-Glo (Promega, cat. # G7572) solution is added directly to the cell culture in each well of the plate and the luminescence signal is measured with a TopCount plate-reader after 10 minutes of incubation at room temperature.
(§4) Results in the table below are expressed by the following data: • the 50% cytostatic concentration (CC50). i.e. the concentration that results in 50% inhibition of cell growth, and • the 50% effective concentration (EC50), i.e. the concentration that protects 50% of the cell monolayer from virus-induced cythopathic effect.

Data set [1] is described as follows: CC50 assay (CellTiter-Glo) in the replicon cells. The data set is classed as cell-based. The settings on record: human, Huh-7 HCV replicon cells, 3 days incubation, 50% inhibition of cell growth. How it is done: as §1, §2, §3, §4
[2] abbreviates: 72 h, human hepatoma Huh-7 cell line harbouring a HCV replicon, 3 days incubation, luciferase readout, read-out: EC50.

Structures are written as SMILES. Like-named read-outs stand apart in the source and are kept apart here. Some results are limits rather than exact numbers.

Usually EC50 stands for the concentration giving half of the maximal effect. The term CC50 denotes the concentration giving 50% cytotoxicity. Higher therefore signals lower toxicity to the cells.

Regarding `CCc1nc(N)nc2ccc(-c3ccc(N4CCCC4=O)cc3)nc12` [Example 8, 1-[4-(2-amino-4-ethyl-pyrido[3,2-d]pyrimidin-6-yl)-phenyl]-pyrrolidin-2-one], the EC50 in the data set with HCV replicon (setting [2]) was less than 300 nM. Besides, the CC50 at 3 days in data set [1] is greater than 20000 nM.

As to `Nc1nc(C2CC2)c2nc(-c3ccc(N4CCCC4=O)cc3)ccc2n1` [Example 14, 1-[4-(2-amino-4-cyclopropyl-pyrido[3,2-d]pyrimidin-6-yl)-phenyl]-pyrrolidin-2-one], the EC50 in the data set with HCV replicon (setting [2]) was less than 300 nM. Moreover, the CC50 at 3 days in data set [1] lay in the range of 10000 to 20000 nM.

For the compound `CCCc1nc(N)nc2ccc(-c3ccc(NC(C)=O)cc3)nc12` [Example 3, N-[4-(2-amino-4-n-propyl-pyrido[3,2-d]pyrimidin-6-yl)-phenyl]-acetamide], the EC50 in the data set with HCV replicon (setting [2]) lay within 300 to 1000 nM. This compound also gave a CC50 at 3 days in data set [1] greater than 20000 nM.

On to `CCc1nc(N)nc2ccc(-c3cnc(N)cn3)nc12` [Example 9, 6-(5-Amino-pyrazin-2-yl)-4-ethyl-pyrido[3,2-d]pyrimidin-2-ylamine], for which the EC50 in the data set on HCV replicon (setting [2]) fell in the range of 300 to 1000 nM. This compound also registered a CC50 at 3 days in data set [1] of less than 10000 nM.

With `C=CCCc1nc(N)nc2ccc(-c3ccc(F)cc3)nc12` [Example 7, 4-but-3-enyl-6-(4-fluorophenyl)-pyrido[3,2-d]pyrimidin-2-ylamine], the EC50 in the data set with HCV replicon (Huh-7, 72 h) was less than 300 nM. Further, the CC50 at 3 days in data set [1] is greater than 20000 nM.

As for `CCCc1nc(N)nc2ccc(-c3ccc(F)cc3)nc12` [Example 2, 6-(4-fluorophenyl)-4-n-propyl-pyrido[3,2-d]pyrimidin-2-yl-amine], in the data set on HCV replicon (setting [2]), the EC50 is less than 300 nM. The CC50 at 3 days in data set [1] was greater than 20000 nM.

As for `CC(C)c1nc(N)nc2ccc(-c3ccc(F)cc3)nc12` [Example 12, 6-(4-fluorophenyl)-4-isopropyl-pyrido[3,2-d]pyrimidin-2-ylamine], in the data set on HCV replicon (setting [2]), the EC50 was less than 300 nM. Moreover, the CC50 at 3 days in data set [1] was greater than 20000 nM.

Consider `CC(C)Cc1nc(N)nc2ccc(-c3ccc(F)cc3)nc12` [Example 6, 6-(4-fluorophenyl)-4-isobutyl-pyrido[3,2-d]pyrimidin-2-ylamine], for which, in the data set with HCV replicon (setting [2]), the EC50 was less than 300 nM. Besides, the 50% cytotoxic concentration (CC50) at 3 days in data set [1] is greater than 20000 nM.

Turning to `Nc1nc(CCC2OCCCO2)c2nc(-c3ccc(F)cc3)ccc2n1` [Example 10, 4-(2-[1,3]dioxan-2-yl-ethyl)-6-(4-fluoro-phenyl)-pyrido[3,2-d]pyrimidin-2-ylamine], in the data set with HCV replicon (Huh-7, 72 h), the EC50 lay within 300 to 1000 nM. In addition, the CC50 at 3 days in data set [1] was greater than 20000 nM.

Consider `CCc1nc(N)nc2ccc(-c3ccc(F)cc3)nc12` [Example 5, 4-ethyl-6-(4-fluoro-phenyl)-pyrido[3,2-d]pyrimidin-2-ylamine], for which the EC50 with HCV replicon (setting [2]) is less than 300 nM. The compound also registered a CC50 at 3 days in data set [1] of less than 10000 nM.

On to `Nc1nc(C2CC2)c2nc(-c3ccc(F)cc3)ccc2n1` [Example 13, 4-Cyclopropyl-6-(4-fluoro-phenyl)-pyrido[3,2-d]pyrimidin-2-ylamine], for which the EC50 in the data set with HCV replicon (setting [2]) was less than 300 nM. Moreover, the CC50 at 3 days in data set [1] was 10000 to 20000 nM.

Regarding `Cc1nc(N)nc2ccc(-c3ccc(F)cc3)nc12` [Example 11, 4-methyl-6-(4-fluorophenyl)-pyrido[3,2-d]pyrimidin-2-ylamine], in the data set with HCV replicon (setting [2]), the EC50 is less than 300 nM. For the same compound, in data set [1], the CC50 at 3 days is less than 10000 nM.

The record behind these values is patent US8338435B2, “Substituted pyrido(3,2-D) pyrimidines and pharmaceutical compositions for treating viral infections” (Gilead Sciences, Inc., priority 2006, dated 2012).
